“Also recorded” adds a separate entry of the source.
Assays:
plants that express DAAO = conditions: at the level of 30 mM; cited from earlier work
Arabidopsis thaliana = conditions: no DAAO; cited from earlier work
transgene-free plants = assay: Toxicity of GAN: shoot regeneration of decapitated transgene-free (wildtype) plants; format: in vivo, tomato; conditions: for Regeneration of transgene-free plants (control): one month after decapitation
Description: (§1) Roughly one week later, seedlings were decapitated at the injection site using a sharp razor blade. Immediately after decapitation, parafilm was stretched over the decapitation site, to prevent the stem from drying out, and aluminum foil was added to cover the parafilm, shading the cut site to promote callus formation. Plants were returned to growth chamber and monitored for axillary shoot formation and callus regeneration. New shoots forming from the cotyledon axillary buds were removed using forceps as soon as they were observed.
(§2) After 1-2 weeks, the cut site of the stem began forming a white callus, and selection gel was applied. Carbomer 940 powder was added to a water solution containing selection agents to make 0.5% w/v carbomer gel. The pH was adjusted with KOH to 7.5 to thicken the gel. The gel containing the selecting agents was added to the decapitated plants by putting a droplet of the gel to the wound site of the shoot using spatula, about 40-50 uL in volume. Parafilm and aluminum foil was placed back on the cut site, and plants were returned to growth chamber. […] Parafilm and foil were removed from decapitation sites, and shoots were allowed to grow.
(§3) Solutions of D-amino acids were made from D-valine powder (MP Biomedicals 0210322625) and D/L-isoleucine powder (MP Biomedicals 0210208225). Zirgan (ganciclovir ophthalmic gel) 0.15%, an antiviral eye gel was used in making GAN gel, as well as in direct application on decapitated plants.
(§4) HSVtk (no Cas9) plants were germinated and grown in soil. They were decapitated about three weeks after they were sown. The selecting agent, GAN (Ganciclovir), was applied to the decapitated plants after the decapitation. We made a series of GAN gels with different GAN concentrations: 0.1 mM, 1 mM, and 4.5 mM. The 0.1 mM and 1 mM GAN gel was made by diluting the Zirgan ganciclovir ophthalmic gel (4.5 mM GAN) into 0.2% carbomer gel. The two gels were mixed in a 4 mL plastic vial by shaking. Around […] GAN gel was applied to each plant each time, and the gel application was renewed every three to five days.
(§5) We tested whether the carbomer gel itself would have an influence on plant regeneration. We included a group of wildtype plants that received no treatment, and a group of wildtype plants that received carbomer gel containing no GAN. All plants in both groups, except one plant in the control set, regenerated new shoots. Therefore, we eliminated the possibility of regeneration interference from the gel.
(§6) One month after the decapitation and application of GAN selection, the regeneration of shoots was evaluated. In the control plants with 0 mM GAN treatment, including HSVtk and wildtype plants, almost all the plants regenerated new shoots. […] Thus, we concluded that GAN was toxic to both HSVtk plants and wildtype plants at a concentration higher than 0.1 mM. However, as the GAN concentration increased, HSVtk plants became more sensitive to it than wildtype plants. At a concentration of 4.5 mM, GAN could prevent regeneration of the HSVtk plants, while still allowing some wildtype plants to regenerate. Therefore we decided to use a 2 mM dose as the effective selecting agent in our future experiments.

[1] = system: transgenic Arabidopsis root explants / leaf explants; conditions: 0.1 mM GAN; cited from earlier work
transgene-free explants = conditions: 0.1 mM GAN; cited from earlier work
HSVtk transgene = assay: CRISPR editing after agro-injection, decapitation and ganciclovir selection: HSVtk; format: in vivo, tomato; conditions: ganciclovir counter-selection of HSVtk+Cas9 lines, regenerated shoots
Description: In example two, we decapitated the seedlings at the first internode so that cells that were genome edited could form a callus, regenerate new meristems and stems. The Cas9 expressing mother plants were injected with the viral replicon vector and decapitated at the epicotyl a week later. The decapitation site was covered with parafilm and an aluminum foil cap for 4 weeks. Any axillary buds in the cotyledon node were removed. When a solid callus mass was visible (approx. four weeks after decapitation) at the wound site, the caps were removed and ganciclovir was applied (2 mM concentration of the compound in a carbomer gel). Every meristem that developed into a healthy shoot was detached and propagated to fruiting. Mutation level and type were analyzed by PCR and sequencing of amplicons flanking the target genomic sites. Regenerated stems were evaluated for mutation in the marker and POTATO LEAF (C) sequences and the expected change in leaf shape typical of a C knockout. We evaluated the correlation between the Cas9 modified HSVtk and C.
Agrobacterium glycerol stocks transformed with pTRV or pTAV vectors were streaked onto LB plates containing appropriate antibiotics based on plasmids and agro strains. […] After 24 hours, cultures were measured for OD600 using spectrophotometer. […] The next day, OD600 was measured for each culture. […]

HSVtk plants = assay: Toxicity of GAN: shoot regeneration of decapitated HSVtk plants; format: in vivo, tomato; conditions: for Regeneration of HSVtk plants: one month after decapitation
Description: as §1, §2, §3, §4, §5, §6

CC[C@@H](C)[C@@H](N)C(=O)O [D-isoleucine]
effect on plants that express DAAO (plants that express DAAO): deleterious effects
influence on plant growth (Arabidopsis thaliana): very little influence on plant growth

Nc1nc(O)c2ncn(COC(CO)CO)c2n1 [GAN, ganciclovir]
Regeneration of transgene-free plants (plants regenerated out of treated) (transgene-free plants; 0.1 mM GAN): (14 out of 15)
Regeneration of transgene-free plants (control) (transgene-free plants; 0.1 mM GAN gel): 93%
Regeneration of transgene-free plants (plants regenerated out of treated) (transgene-free plants; 1 mM GAN): (8 out of 15)
Regeneration of transgene-free plants (control) (transgene-free plants; 1 mM GAN gel): 53%
Regeneration of transgene-free plants (plants regenerated out of treated) (transgene-free plants; 4.5 mM GAN): 6 out of 23 and (6 out of 23)
Regeneration of transgene-free plants (control) (transgene-free plants; 4.5 mM GAN gel): 26%
shoot regeneration on transgenic root explants or callus formation on leaf explants [1]: significantly reduce
regeneration of transgene-free explants (transgene-free explants): does not affect
escapes at current ganciclovir concentrations (HSVtk transgene): ~60%
Regeneration of HSVtk plants (plants regenerated out of treated) (HSVtk plants; 0.1 mM GAN): (16 out of 18)
Regeneration of HSVtk plants (HSVtk plants; 0.1 mM GAN gel on decapitated plants): 89%
Regeneration of HSVtk plants (plants regenerated out of treated) (HSVtk plants; 1 mM GAN): (4 out of 16)
Regeneration of HSVtk plants (HSVtk plants; 1 mM GAN gel on decapitated plants): 25%
Regeneration of HSVtk plants (plants regenerated out of treated) (HSVtk plants; 4.5 mM GAN): none of the HSVtk plants regenerated; also recorded: (0 out of 10)
Regeneration of HSVtk plants (HSVtk plants; 4.5 mM GAN gel on decapitated plants): 0%
Concentration at which GAN was toxic to both HSVtk plants and wildtype plants (HSVtk plants; decapitated plants, GAN gel, HSVtk and wildtype plants): higher than 0.1 mM

C[C@@H](N)C(=O)O [D-alanine]
influence on plant growth (Arabidopsis thaliana): inhibit plant growth even at a low concentration

N[C@H](CO)C(=O)O [D-serine]
influence on plant growth (Arabidopsis thaliana): inhibit plant growth even at a low concentration

CC(C)[C@@H](N)C(=O)O [D-valine]
effect on plants that express DAAO (plants that express DAAO): deleterious effects
influence on plant growth (Arabidopsis thaliana): very little influence on plant growth

Source: US20210348177A1, “GENERATION OF HERITABLY GENE-EDITED PLANTS WITHOUT TISSUE CULTURE” (priority 2018, published 2021)
